From article PMC5540273, “Progress towards a public chemogenomic set for protein kinases and a call for contributions” (PLoS ONE, 2017)

Assays:
Experiment in all cases: KINOMEscan competition binding
[1] = target: T1, EPHA6 (Homo sapiens, UniProt Q9UF33); conditions: read-out: %Inh EPHA6
T1 sequence (Q9UF33 23-1036): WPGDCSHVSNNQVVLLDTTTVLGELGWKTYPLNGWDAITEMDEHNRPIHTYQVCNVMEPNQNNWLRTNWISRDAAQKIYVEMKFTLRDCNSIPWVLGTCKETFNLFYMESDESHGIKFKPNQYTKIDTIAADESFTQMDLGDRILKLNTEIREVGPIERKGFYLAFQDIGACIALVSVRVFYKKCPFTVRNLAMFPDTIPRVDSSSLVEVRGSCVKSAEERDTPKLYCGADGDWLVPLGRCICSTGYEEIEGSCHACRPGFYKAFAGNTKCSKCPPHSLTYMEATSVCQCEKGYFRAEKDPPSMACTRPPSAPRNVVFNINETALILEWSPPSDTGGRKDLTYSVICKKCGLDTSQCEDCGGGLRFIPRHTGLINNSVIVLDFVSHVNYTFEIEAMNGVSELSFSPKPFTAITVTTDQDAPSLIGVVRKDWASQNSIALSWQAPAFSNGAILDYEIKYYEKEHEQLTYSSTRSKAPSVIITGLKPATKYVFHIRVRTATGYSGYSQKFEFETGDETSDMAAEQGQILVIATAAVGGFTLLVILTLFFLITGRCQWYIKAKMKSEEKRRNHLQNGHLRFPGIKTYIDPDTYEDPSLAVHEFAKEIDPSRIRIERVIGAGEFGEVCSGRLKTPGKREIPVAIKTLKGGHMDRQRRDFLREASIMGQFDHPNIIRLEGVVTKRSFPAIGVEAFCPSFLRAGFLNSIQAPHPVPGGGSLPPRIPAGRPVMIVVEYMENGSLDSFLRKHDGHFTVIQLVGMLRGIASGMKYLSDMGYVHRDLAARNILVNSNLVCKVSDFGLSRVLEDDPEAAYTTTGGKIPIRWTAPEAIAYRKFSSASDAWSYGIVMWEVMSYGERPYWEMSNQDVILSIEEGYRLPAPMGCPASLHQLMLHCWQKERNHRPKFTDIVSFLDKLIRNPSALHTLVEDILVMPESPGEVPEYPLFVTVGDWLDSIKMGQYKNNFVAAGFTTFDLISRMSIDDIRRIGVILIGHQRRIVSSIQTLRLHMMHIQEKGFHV

[2] = target: T2, BRSK2 (Homo sapiens, UniProt Q8IWQ3); conditions: read-out: %Inh BRSK2
T2 sequence (Q8IWQ3 1-736): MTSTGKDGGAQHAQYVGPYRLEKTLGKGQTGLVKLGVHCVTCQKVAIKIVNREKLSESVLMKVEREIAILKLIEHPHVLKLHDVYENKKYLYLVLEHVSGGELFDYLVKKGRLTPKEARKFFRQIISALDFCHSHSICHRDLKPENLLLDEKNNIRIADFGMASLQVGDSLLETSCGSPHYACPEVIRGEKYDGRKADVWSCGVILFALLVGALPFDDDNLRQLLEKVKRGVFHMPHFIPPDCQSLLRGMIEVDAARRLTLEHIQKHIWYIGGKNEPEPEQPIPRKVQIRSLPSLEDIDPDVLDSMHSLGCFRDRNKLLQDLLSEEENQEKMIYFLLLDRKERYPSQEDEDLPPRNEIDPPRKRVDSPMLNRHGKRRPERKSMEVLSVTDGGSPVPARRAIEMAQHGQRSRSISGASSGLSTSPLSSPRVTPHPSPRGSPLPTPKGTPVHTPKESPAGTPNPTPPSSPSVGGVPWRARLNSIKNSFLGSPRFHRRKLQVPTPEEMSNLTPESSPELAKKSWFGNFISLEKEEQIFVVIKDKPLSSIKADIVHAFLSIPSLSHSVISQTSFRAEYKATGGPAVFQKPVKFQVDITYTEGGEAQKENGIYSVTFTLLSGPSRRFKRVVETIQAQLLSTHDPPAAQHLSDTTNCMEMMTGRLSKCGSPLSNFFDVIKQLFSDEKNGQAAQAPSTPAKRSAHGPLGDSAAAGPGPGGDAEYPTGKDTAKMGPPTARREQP

[3] = target: T3, DDR2 (Homo sapiens, UniProt Q16832); conditions: read-out: %Inh DDR2
T3 sequence (Q16832 22-855): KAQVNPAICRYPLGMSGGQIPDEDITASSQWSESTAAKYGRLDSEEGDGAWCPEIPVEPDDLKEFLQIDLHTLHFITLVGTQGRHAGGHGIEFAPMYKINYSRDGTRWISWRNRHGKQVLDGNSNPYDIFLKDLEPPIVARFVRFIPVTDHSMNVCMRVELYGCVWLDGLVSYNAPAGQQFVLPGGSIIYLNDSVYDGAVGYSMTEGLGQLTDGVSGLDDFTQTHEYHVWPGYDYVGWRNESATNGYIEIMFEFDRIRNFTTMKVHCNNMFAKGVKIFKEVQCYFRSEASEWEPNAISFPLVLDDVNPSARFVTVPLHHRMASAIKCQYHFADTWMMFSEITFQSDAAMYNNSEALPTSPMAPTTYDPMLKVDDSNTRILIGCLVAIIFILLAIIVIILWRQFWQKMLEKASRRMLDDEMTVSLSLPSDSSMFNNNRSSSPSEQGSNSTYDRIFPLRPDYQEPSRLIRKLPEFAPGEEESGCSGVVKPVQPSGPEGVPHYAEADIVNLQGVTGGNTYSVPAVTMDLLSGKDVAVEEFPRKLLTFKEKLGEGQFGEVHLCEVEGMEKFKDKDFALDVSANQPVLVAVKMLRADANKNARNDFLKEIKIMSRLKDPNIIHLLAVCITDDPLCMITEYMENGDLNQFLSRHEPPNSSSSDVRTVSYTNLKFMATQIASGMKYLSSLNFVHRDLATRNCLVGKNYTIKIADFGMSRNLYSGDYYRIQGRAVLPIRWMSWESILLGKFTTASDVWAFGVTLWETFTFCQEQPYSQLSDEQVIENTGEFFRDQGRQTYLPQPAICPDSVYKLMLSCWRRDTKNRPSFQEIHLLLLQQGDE

SMILES | inhibition at 1 µM [1] [%] | inhibition at 1 µM [2] [%] | inhibition at 1 µM [3] [%]
COc1cccc(OC)c1C(=O)Nc1cccc(-c2nn3ccccc3c2-c2ccnc(Nc3cccc(F)c3)n2)c1 [UNC10225310A] | 11 | 16 | 57
Cc1ccc(NC(=O)Nc2cccc(C(F)(F)F)c2)cc1 [UNC10225187A] | 0 | 0 | 65
O=c1cc(N2CCOCC2)nc2n(Cc3cccc(Cl)c3Cl)c(C3CC3)nn12 [UNC10225469A] | 0 | 0 | 0
CS(=O)(=O)Cc1ccc(Nc2nccc(-c3c(-c4cccc(NC(=O)C5CCCCC5)c4)nn4ncccc34)n2)cc1 [UNC10225159A] | 2 | 0 | 54
Cn1cc(-c2cnc(N)c3c(-c4ccc5c(c4)CCN5C(=O)Cc4ccccc4)csc23)cn1 [UNC10225012A] | 11 | 7 | 24
